According to ChEMBL document CHEMBL3414511, “Synthesis of a novel class of substituted benzothiophene or benzofuran derivatives as BMP-2 up-regulators and evaluation of the BMP-2-up-regulating effects in vitro and the effects on glucocorticoid-induced osteoporosis in rats” (Eur J Med Chem, 2015):
Calls of active or inactive are those of the source. No cut-off for these calls is given here.

Columns and labels:
Rattus norvegicus [1] = assay: Toxicity in glucocorticoid-induced Wistar rat osteoporosis model assessed as white blood cells at 30 mg/kg/day, po administered six times a week for 3 months (reference value: 6.28 +/- 2.78 x 10^9/L); assay type: organism-based; set-up: route oral; details: in vivo
Rattus norvegicus [2] = assay: Toxicity in glucocorticoid-induced Wistar rat osteoporosis model assessed as effect on red blood cell distribution width at 30 mg/kg/day, po administered six times a week for 3 months; assay type: organism-based; set-up: route oral; details: in vivo
Rattus norvegicus [3] = assay: Toxicity in glucocorticoid-induced Wistar rat osteoporosis model assessed as effect on total bilirubin level at 30 mg/kg/day, po administered six times a week for 3 months; assay type: organism-based; set-up: route oral; details: in vivo
Rattus norvegicus [4] = assay: Toxicity in glucocorticoid-induced Wistar rat osteoporosis model assessed as effect on red blood cells at 30 mg/kg/day, po administered six times a week for 3 months; assay type: organism-based; set-up: route oral; details: in vivo
Rattus norvegicus [5] = assay: Antiosteoporotic activity in glucocorticoid-induced Wistar rat osteoporosis model assessed as increase in trabecula area at 30 mg/kg/day, po administered six times a week for 3 months by toluidine blue staining-based light microscopic analysis relative to dexamethasone; assay type: functional, organism-based
Rattus norvegicus [6] = assay: Toxicity in glucocorticoid-induced Wistar rat osteoporosis model assessed as effect on blood urea nitrogen level at 30 mg/kg/day, po administered six times a week for 3 months; assay type: organism-based; set-up: route oral; details: in vivo
Rattus norvegicus [7] = assay: Toxicity in glucocorticoid-induced Wistar rat osteoporosis model assessed as effect on red blood cell specific volume at 30 mg/kg/day, po administered six times a week for 3 months; assay type: organism-based; set-up: route oral; details: in vivo
Rattus norvegicus [8] = assay: Antiosteoporotic activity in glucocorticoid-induced Wistar rat osteoporosis model assessed as increase in trabecula connectivity at 30 mg/kg/day, po administered six times a week for 3 months by toluidine blue staining-based light microscopic analysis relative to dexamethasone; assay type: functional, organism-based
Rattus norvegicus [9] = assay: Toxicity in glucocorticoid-induced Wistar rat osteoporosis model assessed as lymph level at 30 mg/kg/day, po administered six times a week for 3 months (reference value: 50.35 +/- 12.96%); assay type: organism-based; set-up: route oral; details: in vivo
Rattus norvegicus [10] = assay: Antiosteoporotic activity in glucocorticoid-induced Wistar rat osteoporosis model assessed as trabecular bone volume at 30 mg/kg/day, po administered six times a week for 3 months by fluorescence assay (reference value: 33.09 +/- 5.15%); assay type: functional, Trabecula
Rattus norvegicus [11] = assay: Toxicity in glucocorticoid-induced Wistar rat osteoporosis model assessed as effect on mean corpuscular volume at 30 mg/kg/day, po administered six times a week for 3 months; assay type: organism-based; set-up: route oral; details: in vivo
Rattus norvegicus [12] = assay: Toxicity in glucocorticoid-induced Wistar rat osteoporosis model assessed as effect on hemoglobin at 30 mg/kg/day, po administered six times a week for 3 months; assay type: organism-based; set-up: route oral; details: in vivo
Mus musculus [13] = assay: Acute toxicity in Kunming mouse assessed as shiny fur at 700 mg/kg, po administered for 3 days measured during compound dosing and following 14 days; assay type: organism-based; set-up: dose 700 mg/kg, route oral; details: in vivo, 336 h
Rattus norvegicus [14] = assay: Toxicity in glucocorticoid-induced Wistar rat osteoporosis model assessed as triglycerides level at 30 mg/kg/day, po administered six times a week for 3 months (reference value: 1.13 +/- 0.69 mmol/L); assay type: organism-based; set-up: route oral; details: in vivo
Rattus norvegicus [15] = assay: Antiosteoporotic activity in glucocorticoid-induced Wistar rat osteoporosis model assessed as trabecula formation surface at 30 mg/kg/day, po administered six times a week for 3 months by fluorescence assay (reference value: 7.82 +/- 2.46%); assay type: functional
Rattus norvegicus [16] = assay: Toxicity in glucocorticoid-induced Wistar rat osteoporosis model assessed as aspartate transaminase level at 30 mg/kg/day, po administered six times a week for 3 months (reference value: 177.55 +/- 116.98 U/L); assay type: organism-based; set-up: route oral; details: in vivo
Rattus norvegicus [17] = assay: Toxicity in glucocorticoid-induced Wistar rat osteoporosis model assessed as neutrophilic granulocytes level at 30 mg/kg/day, po administered six times a week for 3 months (reference value: 31.95 +/- 8.33%); assay type: organism-based; set-up: route oral; details: in vivo
Mus musculus [18] = assay: Acute toxicity in Kunming mouse assessed as behavioral changes at 700 mg/kg, po administered for 3 days measured during compound dosing and following 14 days; assay type: organism-based; set-up: dose 700 mg/kg, route oral; details: in vivo, 336 h
Rattus norvegicus [19] = assay: Antiosteoporotic activity in glucocorticoid-induced Wistar rat osteoporosis model assessed as trabecula resorption surface at 30 mg/kg/day, po administered six times a week for 3 months by fluorescence assay (reference value: 7.22 +/- 2.04%); assay type: functional
[20] = Acute toxicity in po dosed Kunming mouse administered for 3 days measured during compound dosing and following 14 days; assay type: organism-based; details: in vivo
Rattus norvegicus [21] = assay: Toxicity in glucocorticoid-induced Wistar rat osteoporosis model assessed as effect on platelets at 30 mg/kg/day, po administered six times a week for 3 months; assay type: organism-based; set-up: route oral; details: in vivo
Rattus norvegicus [22] = assay: Toxicity in glucocorticoid-induced Wistar rat osteoporosis model assessed as effect on creatinine level at 30 mg/kg/day, po administered six times a week for 3 months; assay type: organism-based; set-up: route oral; details: in vivo
Rattus norvegicus [23] = assay: Toxicity in glucocorticoid-induced Wistar rat osteoporosis model assessed as effect on albumin level at 30 mg/kg/day, po administered six times a week for 3 months; assay type: organism-based; set-up: route oral; details: in vivo
Rattus norvegicus [24] = assay: Toxicity in glucocorticoid-induced Wistar rat osteoporosis model assessed as alanine transaminase level at 30 mg/kg/day, po administered six times a week for 3 months (reference value: 43.73 +/- 36.21 U/L); assay type: organism-based; set-up: route oral; details: in vivo
Rattus norvegicus [25] = assay: Antiosteoporotic activity in glucocorticoid-induced Wistar rat osteoporosis model assessed as increase in trabecula number at 30 mg/kg/day, po administered six times a week for 3 months by toluidine blue staining-based light microscopic analysis relative to dexamethasone; assay type: functional, organism-based
Rattus norvegicus [26] = assay: Antiosteoporotic activity in glucocorticoid-induced Wistar rat osteoporosis model assessed as mineral apposition rate at 30 mg/kg/day, po administered six times a week for 3 months by fluorescence assay (reference value: 1.06 +/- 0.27 micrometer/day); assay type: functional
[27] = Upregulation of BMP-2 expression in mouse MC3T3-E1 cells at 4 uM after 24 hrs by luciferase reporter gene assay relative to control; assay type: functional, cell-based
Rattus norvegicus [28] = assay: Toxicity in glucocorticoid-induced Wistar rat osteoporosis model assessed as effect on glucose level at 30 mg/kg/day, po administered six times a week for 3 months; assay type: organism-based; set-up: route oral; details: in vivo
Rattus norvegicus [29] = assay: Antiosteoporotic activity in glucocorticoid-induced Wistar rat osteoporosis model assessed as increase in trabecula thickness at 30 mg/kg/day, po administered six times a week for 3 months by toluidine blue staining-based light microscopic analysis relative to dexamethasone; assay type: functional, organism-based
Rattus norvegicus [30] = assay: Toxicity in glucocorticoid-induced Wistar rat osteoporosis model assessed as effect on mean corpuscular hemoglobin concentration at 30 mg/kg/day, po administered six times a week for 3 months; assay type: organism-based; set-up: route oral; details: in vivo
Rattus norvegicus [31] = assay: Toxicity in glucocorticoid-induced Wistar rat osteoporosis model assessed as effect on total protein level at 30 mg/kg/day, po administered six times a week for 3 months; assay type: organism-based; set-up: route oral; details: in vivo
Rattus norvegicus [32] = assay: Antiosteoporotic activity in glucocorticoid-induced Wistar rat osteoporosis model assessed as mineral apposition rate at 2.5 mg/kg/day, im administered twice each week for 8 weeks by fluorescence assay (reference value: 1.06 +/- 0.27 micrometer/day); assay type: functional; details: route intramuscular
Rattus norvegicus [33] = assay: Antiosteoporotic activity in glucocorticoid-induced Wistar rat osteoporosis model assessed as appearance of turbulent and sparse rarefection of trabecula at 2.5 mg/kg/day, im administered twice each week for 8 weeks by toluidine blue staining-based light microscopic analysis; assay type: functional, organism-based
Rattus norvegicus [34] = assay: Toxicity in glucocorticoid-induced Wistar rat osteoporosis model assessed as neutrophilic granulocytes level at 2.5 mg/kg/day, im administered twice each week for 8 weeks (reference value: 31.95 +/- 8.33%); assay type: organism-based; set-up: route intramuscular; details: in vivo, 1344 h
Rattus norvegicus [35] = assay: Toxicity in glucocorticoid-induced Wistar rat osteoporosis model assessed as aspartate transaminase level at 2.5 mg/kg/day, im administered twice each week for 8 weeks (reference value: 177.55 +/- 116.98 U/L); assay type: organism-based; set-up: route intramuscular; details: in vivo, 1344 h
Rattus norvegicus [36] = assay: Antiosteoporotic activity in glucocorticoid-induced Wistar rat osteoporosis model assessed as trabecula resorption surface at 2.5 mg/kg/day, im administered twice each week for 8 weeks by fluorescence assay (reference value: 7.22 +/- 2.04%); assay type: functional; details: route intramuscular
Rattus norvegicus [37] = assay: Toxicity in glucocorticoid-induced Wistar rat osteoporosis model assessed as triglycerides level at 2.5 mg/kg/day, im administered twice each week for 8 weeks (reference value: 1.13 +/- 0.69 mmol/L); assay type: organism-based; set-up: route intramuscular; details: in vivo, 1344 h
Rattus norvegicus [38] = assay: Toxicity in glucocorticoid-induced Wistar rat osteoporosis model assessed as lymph level at 2.5 mg/kg/day, im administered twice each week for 8 weeks (reference value: 50.35 +/- 12.96%); assay type: organism-based; set-up: route intramuscular; details: in vivo, 1344 h
Rattus norvegicus [39] = assay: Toxicity in glucocorticoid-induced Wistar rat osteoporosis model assessed as white blood cells at 2.5 mg/kg/day, im administered twice each week for 8 weeks (reference value: 6.28 +/- 2.78 x 10^9/L); assay type: organism-based; set-up: route intramuscular; details: in vivo, 1344 h
Rattus norvegicus [40] = assay: Toxicity in glucocorticoid-induced Wistar rat osteoporosis model assessed as alanine transaminase level at 2.5 mg/kg/day, im administered twice each week for 8 weeks (reference value: 43.73 +/- 36.21 U/L); assay type: organism-based; set-up: route intramuscular; details: in vivo, 1344 h
Rattus norvegicus [41] = assay: Antiosteoporotic activity in glucocorticoid-induced Wistar rat osteoporosis model assessed as trabecular bone volume at 2.5 mg/kg/day, im administered twice each week for 8 weeks by fluorescence assay (reference value: 33.09 +/- 5.15%); assay type: functional, Trabecula; details: route intramuscular
Rattus norvegicus [42] = assay: Antiosteoporotic activity in glucocorticoid-induced Wistar rat osteoporosis model assessed as trabecula formation surface at 2.5 mg/kg/day, im administered twice each week for 8 weeks by fluorescence assay (reference value: 7.82 +/- 2.46%); assay type: functional; details: route intramuscular
[43] = Upregulation of BMP-2 expression in mouse MC3T3-E1 cells at 0.4 uM after 24 hrs by luciferase reporter gene assay relative to control; assay type: functional, cell-based

In the case of CCOC(=O)c1cc2ccc(C(=O)OC)cc2s1, the Activity (Rattus norvegicus [1]) was 3.03 ×10⁹ /L, the Activity (Rattus norvegicus [2]) was “Non-toxic” and the Activity (Rattus norvegicus [3]) was “Non-toxic”. For the same compound, the Activity (Rattus norvegicus [4]) was “Non-toxic”, the Activity (Rattus norvegicus [5]) was “Active” and the Activity (Rattus norvegicus [6]) was “Non-toxic”. The Activity (Rattus norvegicus [7]) was “Non-toxic”, the Activity (Rattus norvegicus [8]) was “Active” and the Activity (Rattus norvegicus [9]) was 46.39%. The Activity (Rattus norvegicus [10]) was 28.61%, the Activity (Rattus norvegicus [11]) was “Non-toxic” and the Activity (Rattus norvegicus [12]) was “Non-toxic”. For the same compound, the Activity (Mus musculus [13]) was “Non-toxic”, the Activity (Rattus norvegicus [14]) was 0.36 mmol/L and the Activity (Rattus norvegicus [15]) was 6.69%. The Activity (Rattus norvegicus [16]) was 124.42 U/L, the Activity (Rattus norvegicus [17]) was 40.03% and the Activity (Mus musculus [18]) was “Non-toxic”. For the same compound, the Activity (Rattus norvegicus [19]) was 8.92%, the LD50 at 336 h [20] was greater than 700 mg/kg and the Activity (Rattus norvegicus [21]) was “Non-toxic”. The Activity (Rattus norvegicus [22]) was “Non-toxic”, the Activity (Rattus norvegicus [23]) was “Non-toxic” and the Activity (Rattus norvegicus [24]) was 26.25 U/L. For the same compound, the Activity (Rattus norvegicus [25]) was “Active”, the Activity (Rattus norvegicus [26]) was 1.13 micrometer/day and the Activity [27] was 123%. The Activity (Rattus norvegicus [28]) was “Non-toxic”, the Activity (Rattus norvegicus [29]) was “Active” and the Activity (Rattus norvegicus [30]) was “Non-toxic”. The Activity (Rattus norvegicus [31]) was “Non-toxic”.
In the case of C[C@@H]1C[C@H]2[C@@H]3CCC4=CC(=O)C=C[C@]4(C)[C@@]3(F)[C@@H](O)C[C@]2(C)[C@@]1(O)C(=O)CO [DEXAMETHASONE], the Activity (Rattus norvegicus [32]) was 0.76 micrometer/day, the Activity (Rattus norvegicus [33]) was “inactive” and the Activity (Rattus norvegicus [34]) was 53.03%. The Activity (Rattus norvegicus [35]) was 213 U/L, the Activity (Rattus norvegicus [36]) was 11.8% and the Activity (Rattus norvegicus [37]) was 1.63 mmol/L. It also gave an Activity (Rattus norvegicus [38]) of 25.77%, an Activity (Rattus norvegicus [39]) of 6.58 ×10⁹ /L and an Activity (Rattus norvegicus [40]) of 63.64 U/L. For the same compound, the Activity (Rattus norvegicus [41]) was 18.46% and the Activity (Rattus norvegicus [42]) was 4.49%.
For CC[C@H](C)C(=O)O[C@H]1C[C@@H](C)C=C2C=C[C@H](C)[C@H](CC[C@@H]3C[C@@H](O)CC(=O)O3)[C@H]21, the Activity [43] was 20.9%.
